The text below walks through data of patent US10603335B2, “Cancer treatment combination compositions, methods and uses” (Board of Supervisors of Louisiana State University and …, priority 2016, dated 2020).

One data set relates to Panc-1 cells spheroids. As to the kind of experiment: 3D spheroid growth (IncuCyte ZOOM), Panc-1. In kind it is cell-based. As to the method: (§1) A protocol that enables the growth of identical size single cancer cell spheroids in Matrigel in 96 well plates has been developed.
(§2) Panc-1 and Mia-Paca-2 cells were grown in 10% FBS DMEM. Cells were collected after trypsinization and resuspended in phenol-red free DMEM with 10% FBS. Cells were labeled with CellTracker Red (Life Techmologies) for 5 minutes. After labeling cells were washed with PBS and transfer into 96-well Corning 7007 ULA round bottom plates at 1,000 cells/well in 100 μl phenol-red free media with 10% FBS and 5% Matrigel. […] Spheroids were grown at 37° C. and 5% CO2 in IncuCyte ZOOM (Essen Bioscience). Images were acquired every 4 h for a period of 120 h post-treatment and software analysis was design to identify the red object in the well. The data were expressed as fold increase in spheroids size at the end of the treatment using the “average red object area in the well” as determined by the IncuCyte software analysis. Reproducibility was confirmed in three independent experiments. Spheroids grew at a uniform rate (FIG. 1).

A further data set deals with PATX110 tissue slices. Kind of data set: Live Tissue Sensitivity Assay (LTSA), PATX110. The conditions noted are these: 72 hours. In kind it is cell-based. As to the method:
(§3) Animal experiment protocol was reviewed and approved by The University of Texas MD Anderson Cancer Center (Houston, Tex.) institutional review board and in accordance with the Guidelines for the Care and Use of Laboratory Animals published by the National Institutes of Health. PDXs were grown from cryopreserved early passages of PDXs in nude mice as described in previous publications (Kim M P, et al, Nat Protoc 2009; 4(11): 1670-80). Briefly, tumor samples stored in CryoStor™ CS10 storage medium were recovered and cut into about 2 mm3 fragments, soaked in Matrigel, and implanted into the subcutaneous space of Balb/c nude mice (5 mice/PDX). Tumors were harvested when they reach 1.5 cm in diameter for generating tissue slices for drug testing with quadruplicates.
(§4) About 100 tissue slices were produced from 1 tumorgraft with tissue slicer and arrayed in 96-well plates with previously established method (Roife D, et al, Clin Cancer Res 2016). […] Same volume of medium with 0.1% DMSO was added into control wells. After 72 hours, tissue viabilities were measured with PrestoBlue method. Viability inhibition will be calculated through normalization of viabilities of tissue slices treated with inhibitor against the viability of control (DMSO treated) slices. Inhibition of viability was further analyzed with t-test. […]

The test system of another data set is PATX50 tissue slices. Kind of data set: Live Tissue Sensitivity Assay (LTSA), PATX50. The format is cell-based. The note with it: 72 hours. As to the method: as §3, §4
The subject of data set [1] is cleaved PARP, XIAP and cIAP2 in MiaPaca-2 cells. As to the kind of experiment: Western blot of apoptosis markers and inhibitors of apoptosis, MiaPaca-2. In kind it is cell-based, human. The note with it: for apoptosis marker cleaved PARP: 24 h post-treatment, LHRH-curcumin 10-100 uM, gemcitabine 1-20 uM. On the procedure:
(§5) Pancreatic cells were collected after trypsinization and seeded in 12-well plates for 24 h before treatments. Treatments were performed as described in the Figure legends. Following treatment, whole cell lysates were collected in Laemmli buffer and analyzed by Western blot. The following primary antibodies were used: XIAP, c-IAP2, cleaved PARP, Caspase-3 (all from Cell Signaling), actin (Santa Cruz) and LHRHR (Abcam).
(§6) Western blot analysis. Actin, GAPDH and Ponceau staining were used as loading controls. Gemcitabine was diluted in water. Curcumin and LHRH-curcumin were diluted in DMSO. Cells were treated as follows:
Western blot analysis. Actin, GAPDH and Ponceau staining were used as loading controls. Gemcitabine was diluted in water. Curcumin and LHRH-curcumin were diluted in DMSO. The cells were treated as follows:
Western blot analysis. Actin was used as loading control. Both gemcitabine and LHRH-curcumin were diluted in water.
(Immunoblotting shows a protein as a band on a membrane.)

The next data set deals with Mia-PaCa-2 spheroids. Kind of data set: 3D spheroid growth (IncuCyte ZOOM), Mia-PaCa-2. In kind it is cell-based, human. The note with it: for size of the spheroids: MiaPaca-2, gemcitabine 0.5, 1.0, 5.0 μM, LHRH-curcumin 10, 20 μM, 5 days. On the procedure:
as §1, §2

Data set [2] concerns cleaved PARP, XIAP and cIAP2 in AsPC-1 cells. Kind of data set: Western blot of apoptosis markers and inhibitors of apoptosis, AsPC-1. In kind it is cell-based. The note with it: for XIAP and c-IAP2 protein levels: 24 h; for apoptosis marker cleaved PARP: 24 h post-treatment, LHRH-curcumin 10-100 uM, gemcitabine 1-20 uM. As to the method:
as §5, §6
Western blot analysis. Actin, GAPDH and Ponceau staining were used as loading controls. Gemcitabine was diluted in water. Curcumin and LHRH-curcumin were diluted in DMSO.

In the next data set the test system is PATX176 tissue slices. As to the kind of experiment: Live Tissue Sensitivity Assay (LTSA), PATX176. The conditions noted are these: 72 hours. The format is cell-based. On the procedure:
as §3, §4

For a further data set, the system named is PATX113 tissue slices. As to the kind of experiment: Live Tissue Sensitivity Assay (LTSA), PATX113. In kind it is cell-based. The conditions noted are these: 72 hours. As to the method: as §3, §4
Another data set deals with PATX148 tissue slices. As to the kind of experiment: Live Tissue Sensitivity Assay (LTSA), PATX148. The conditions noted are these: 72 hours. In kind it is cell-based. As to the method:
as §3, §4

Data set [3] deals with Mia-PaCa-2 cancer cell xenografts. As to the kind of experiment: Mia-PaCa-2 subcutaneous xenograft tumor growth. The format is in vivo, SCID/bg mice. The note with it: IP. As to the method: (§7) Male SCID/bg mice (5 weeks old; Taconic Biosciences, NY) were housed in the standard mouse Plexiglas cages in a room maintained at constant temperature and humidity under a 12 h light and darkness cycle. The experimental protocol was reviewed and approved by the Institutional Animal Care and Use Committee at the LSUHSC Shreveport.
Mia-PaCa-2 cells were harvested from cell cultures after trypsinization. The cells were washed once in serum-free medium and re-suspended in HBSS. Only suspensions consisting of single cells with >90% viability were used for the injections. Mice were injected s.c. on the right hind flank with 5×10^6 MIA-PaCa cells (ATCC, VA) in 50% Matrigel/HBSS with 26 Ga syringes.
(§8) The vehicle treated group received an equivalent amount of PBS. Tumor volumes were measured with calipers once a week and body weights of mice were measured once a week. Tumor volumes were calculated by the formula: V(mm3)=(length×width*2)/2, in which width was the shortest measurement in millimeters. Mice were necropsied 10 days after the last treatment for the low dose treatment (day 35 after the randomization and day 55 from the tumor cell implantation) or 2 days after the last treatment for high dose treatment (day 28 after the randomization and 48 from the tumor cell implantation). Tumors were dissected, weighed and photographed.

The test system of another data set is PATX118 tissue slices. Kind of data set: Live Tissue Sensitivity Assay (LTSA), PATX118. The note with it: 72 hours. The format is cell-based. On the procedure: as §3, §4
The test system of a further data set is AsPC-1 spheroids. As to the kind of experiment: 3D spheroid growth (IncuCyte ZOOM), AsPC-1. In kind it is cell-based. The note with it: gemcitabine 0.5, 1.0, 5.0 μM, LHRH-curcumin 10, 20 μM, 5 days. As to the method:
as §2
Panc-1, Mia-Paca-2 and AsPC-1 spheroids were formed in 96-well round bottom plates as described. […] Media alone was used as control. The spheroids were grown for 5 days before quantification. Both gemcitabine and LHRH-curcumin were diluted in water.

The nature of data set [4]: Body weight of tumor-bearing mice during treatment. The conditions noted are these: IP. On the procedure:
as §7, §8

Where [5] appears, read: gemcitabine 0.5, 1.0, 5.0 μM, LHRH-curcumin 10, 20 μM, 5 days.
[6] abbreviates: 24 h, curcumin, LHRH-curcumin 50 uM and 100 uM alone, gemcitabine alone.
Where [7] appears, read: curcumin, LHRH-curcumin 50 uM and 100 uM alone, gemcitabine alone.
Setting [8] is: high doses: gemcitabine 100 mg/kg once a week, LHRH-curcumin 40 mg/kg twice a week, day 48.
Setting [9] is: low doses: gemcitabine 50 mg/kg once a week, LHRH-curcumin 20 mg/kg twice a week, day 55.
[10] abbreviates: high doses: gemcitabine 100 mg/kg once a week, LHRH-curcumin 40 mg/kg twice a week.
The mark [11] stands for this setting: low doses: gemcitabine 50 mg/kg once a week, LHRH-curcumin 20 mg/kg twice a week.

As to `COc1cc(/C=C/C(=O)CC(=O)/C=C/c2ccc(OC(=O)CCCC(=O)NCCCC[C@@H](NC(=O)[C@H](Cc3ccc(O)cc3)NC(=O)[C@H](CO)NC(=O)[C@H](Cc3c[nH]c4ccccc34)NC(=O)[C@H](Cc3c[nH]cn3)NC(=O)[C@@H]3CCC(=O)N3)C(=O)N[C@@H](CC(C)C)C(=O)N[C@@H](CCCNC(=N)N)C(=O)N3CCC[C@H]3C(=O)NCC(N)=O)c(OC)c2)ccc1O` [LHRH-curcumin, [DLys6]-LHRH-Curcumin], the “effectiveness on spheroids growth versus curcumin” value in the data set on Panc-1 cells spheroids (3D culture, 10, 20 and 30 μM, 120 h) was “more effective than curcumin”. Besides, the “size of the spheroids” value in the data set with Panc-1 cells spheroids (10, 20 and 30 μM, 120 h post-treatment) is “significantly decreased the size of the spheroids formed by Panc-1 cells in a dose-dependent manner”; in the data set with Panc-1 cells spheroids (setting [5]), “decrease the size of the spheroids”; with Mia-PaCa-2 spheroids it was “decrease the size of the spheroids”; in the data set with AsPC-1 spheroids it was “decrease the size of the spheroids”. Besides, the spheroids growth result in the data set with Panc-1 cells spheroids (LHRH 30 μM, LHRH-curcumin 30 μM) is on record as “superior to that of LHRH”. The “Sensitivity To LHRH-C” value in the data set on PATX110 tissue slices (single agent) is “Sensitive (The tissue was defined as sensitive to the treatment if both p<0.05 and at least 30% of tissue slice viability on average was inhibited)”; with PATX50 tissue slices (single agent), “Resistant”; with PATX176 tissue slices (single agent), “Resistant”; in the data set on PATX113 tissue slices (single agent) it was “Sensitive (The tissue was defined as sensitive to the treatment if both p<0.05 and at least 30% of tissue slice viability on average was inhibited)”; in the data set on PATX148 tissue slices (single agent) it was “Resistant”; with PATX118 tissue slices (single agent), “Resistant”. For the same molecule, the “XIAP and c-IAP2 protein levels” value in [1] (24 h, 50 uM in the presence of gemcitabine (5 uM)) is “down-regulated”; in [1] (setting [6]), “down-regulated”; in [1] (72 h, LHRH-curcumin 10 uM and 20 uM in the presence of gemcitabine (5 uM and 10 uM)) it was “down-regulated”; in [2] (50 uM in the presence of gemcitabine (5 uM)) it was “down-regulated”; in [2] (setting [7]), “down-regulated”. Moreover, the “apoptosis marker cleaved PARP” value in data set [1] (curcumin) and in data set [2] (curcumin) was “initiate apoptosis as illustrated by the presence of cleaved PARP” throughout. For the same molecule, the “efficiency on spheroids growth, Panc-1 versus Mia-PaCa-2” value with Mia-PaCa-2 spheroids (10, 20 and 30 μM, 120 h) was “more efficient on Panc-1 cells than Mia-PaCa-2 cells”. Further, the “Tumor volume at necropsy” value in data set [3] (setting [8]) and in data set [3] (setting [9]) was “significantly reduced” each time. For the same molecule, the “body weight or body condition” value in data set [4] (setting [10]) and in [4] (setting [11]) was “does not negatively impact body weight or body condition” each time.

Take `Nc1ccn([C@@H]2O[C@H](CO)[C@@H](O)C2(F)F)c(=O)n1` [gemcitabine, 2′,2′-difluoro 2′deoxycytidine, reference compound]: the “size of the spheroids” value with Panc-1 cells spheroids (setting [5]), in the data set on Mia-PaCa-2 spheroids and in the data set with AsPC-1 spheroids was “decrease the size of the spheroids” in each case. Further, the tissue slice viability is 100.20 in the data set with PATX110 tissue slices (Gem 10 μM); 104.96 with PATX50 tissue slices (Gem 10 μM); 88.23 in the data set with PATX176 tissue slices (Gem 10 μM); 82.19 in the data set on PATX113 tissue slices (Gem 10 μM); 99.55 in the data set with PATX148 tissue slices (Gem 10 μM); 97.56 in the data set on PATX118 tissue slices (Gem 10 μM). The “XIAP and c-IAP2 protein levels” value in data set [1] (setting [6]) was “doesn't affect XIAP and c-IAP2 levels”; in data set [2] (setting [7]), “doesn't affect XIAP and c-IAP2 levels”. Besides, the “apoptosis marker cleaved PARP” value is on record as “no cleaved PARP was detected” in data set [1] (curcumin) and “Low levels of cleaved PARP was detected” in data set [2] (curcumin). Moreover, the “Tumor volume at necropsy” value in data set [3] (setting [8]) and in [3] (setting [9]) was “significantly reduced” each time. Also, the “body weight or body condition” value in [4] (setting [10]) and in [4] (setting [11]) was “does not negatively impact body weight or body condition” each time.
